Results published in patent EP2135864A1, “5-(4-methanesulfonyl-phenyl)-thiazole derivatives for the treatment of acute and chronic inflammatory diseases” (FAES FARMA, S.A., priority 2008, dated 2009).

Assays:
Type in all cases: cell-based, human
TNF-alpha [1] = experiment: TNF-alpha production by PBMC from healthy volunteers, Cytometric Bead Array (CBA); conditions: 24 hours, mean ± standard error, n=13
Protocol: (§1) CBA protocol was followed according to the manufacturer's instructions. The election of microparticles was performed following the summary of Figure 1.
(§2) The acquisition on samples was performed with the BD FACS Array Bioanalyser System (FACSArray, Becton Dickinson, San José, CA, USA) and the analysis of the results was completed with the software FCAP Array (Becton Dickinson) in a PC computer.
(§3) Briefly, the experimental protocol consisted of a plate pre-washing out with Wash Buffer. After decantation, the mixture of capture microparticles was re-suspended in the vortex. Standards and samples were added in the adequate dilution. After permanent stirring incubation during 1 h, the PE detection reagent was added and incubated again during 2h at room temperature. After a washing-out, the acquisition was performed in the flow cytometer. Table 3. -Kit CBA Human Soluble Protein Multiplex Flex Set System.
PBMC (5 x 10^4 cells/well) from 13 healthy volunteers were cultured in duplicate in 200 µl of complete medium supplemented with the highest solvent concentration (10^-6 M), […] the absence of LPS (10µg/ml) during 24 hours. Supernatant of cultures were frozen at -20°C and quantification was carried out by BD FACS Array Bioanayliser (BD Biosciences Cat No. 340128, San Diego CA 92121) by using specific reagents for the simultaneous assay of the indicated cytokines concentration (CBA Flex Multiplex Set (BD™ Cytometric Bead Array, CBA: IL-8, IL-10, TNF-alpha and IFN-gamma Becton Dickinson Biosciences Pharmingen, San Diego CA 92121).

TNF-alpha [2] = experiment: TNF-alpha production by PBMC from patients with rheumatoid arthritis, CBA; conditions: 24 hours, mean ± standard error, n=7
Protocol: as §1, §2, §3
In another experiment, PBMC (5 x 10^4 cells per well) from 7 patients with rheumatoid arthritis were cultured in duplicate in 200 µl of complete medium supplemented with the highest solvent (10^-6 M), and 10^-6 M, 10^-7 M and 10^-8 M compound 12 and in the presence and absence of either LPS (10 µg/ml), or anti-CD3 (12.5ng/ml) (Orthoclone OKT3, Ortho Pharmaceutical Corporation, Raritan NJ, USA) + anti-CD28 (1/3x10^5) (Clon 15E8, Menarini, Madrid, Spain), during 24 hours. Culture supernatants were frozen at -20°C and the concentration of TNF-alpha quantified by BD FACS Array Bioanalyser by using CBA Flex Set (Becton Dickinson), specific for determining the concentration of that cytokine, following the manufacturer instructions.

IFN-gamma = IFN-gamma production by PBMC from patients with rheumatoid arthritis, CBA; conditions: 24 hours, mean ± standard error, n=8
Protocol: as §1, §2, §3
PBMC (5 x 10^4 cells/well) from 8 patients with rheumatoid arthritis were cultured in duplicate 200 µl of complete medium supplement with the highest solvent concentration (10^-6 M), and 10^-6 M, 10^-7 M and 10^-8 M of compound 12, in the presence and absence either of LPS (10 µg/ml), or anti-CD3 (12.5 ng/ml) + anti-CD28 (1/3x10^5), during 24 hours. Culture supernatants were frozen at -20°C and IFN-gamma concentration was assessed by BD FACS Array Bioanalyser by using CBA Flex Set, specific to determine IFN-gamma concentration, following the manufacturer instructions.

IL-8 = IL-8 production by PBMC from healthy volunteers, CBA; conditions: 24 hours, mean ± standard error, n=13
Protocol: as §1, §2, §3
The effect of compound 12 on the IL-8 production by the PBMC from healthy volunteers was further investigated, both in the presence and absence of LPS stimuli and monoclonal antibodies anti-CD3 and anti-CD28. PBMC (5 x 10^4 cells/well) from 13 healthy volunteers were cultured in duplicate in 200 µl of complete medium supplemented with the highest solvent concentration (10^-6 M), and 10^-6 M, 10^-7 M and 10^-8 M of compound 12, in the presence and absence of either LPS (10 µg/ml) or anti-CD3 (12.5 ng/ml) + anti-CD28 (1/3x10^5), during 24 hours. Culture supernatants were frozen at -20°C and IL-8 concentration was quantified by BD FACS Array Bioanalyser by using CBA Flex Set, specific to determine the IL-8 concentration, following the manufacturer instructions.

For Cc1nc(OC2CCCC2)c(-c2ccc(S(C)(=O)=O)cc2)s1 [compound 12, 4-cyclopentyloxy-5-(4-methylsulfonyl-phenyl)-2-methylthiazole], the “TNF-alpha production in PMBC from healthy volunteers” value (TNF-alpha [1]; LPS (10µg/ml), 10^-6 M, vehicle 923.93±160.00, p 0.002) was 602.12±100.00 (0.002) pg/mL, the “TNF-alpha production in PMBC from healthy volunteers” value (TNF-alpha [1]; LPS (10µg/ml), 10^-7 M, vehicle 923.93±160.00, p 0.046) was 746.84±125.00 (0.046) pg/mL and the “TNF-alpha production in PMBC from healthy volunteers” value (TNF-alpha [1]; LPS (10µg/ml), 10^-8 M, vehicle 923.93±160.00, p 0.055) was 738.81±100.00 (0.055) pg/mL. The “TNF-alpha production in PMBC from healthy volunteers” value (TNF-alpha [1]; anti-CD3 (12.5 ng/ml) + anti-CD28 (1/3x10^5), 10^-6 M, vehicle 435.81±60.00, p 0.116) was 334.21±63.00 (0.116) pg/mL, the “TNF-alpha production in PMBC from healthy volunteers” value (TNF-alpha [1]; anti-CD3 (12.5 ng/ml) + anti-CD28 (1/3x10^5), 10^-7 M, vehicle 435.81±60.00, p 0.753) was 404.11±97.00 (0.753) pg/mL and the “TNF-alpha production in PMBC from healthy volunteers” value (TNF-alpha [1]; anti-CD3 (12.5 ng/ml) + anti-CD28 (1/3x10^5), 10^-8 M, vehicle 435.81±60.00, p 0.422) was 355.62±65.00 (0.422) pg/mL. For the same compound, the “TNF-alpha production in PMBC from healthy volunteers” value (TNF-alpha [1]; medium, 10^-6 M, vehicle 163.84±30.00, p 0.422) was 148.31±50.00 (0.422) pg/mL, the “TNF-alpha production in PMBC from healthy volunteers” value (TNF-alpha [1]; medium, 10^-7 M, vehicle 163.84±30.00, p 0.249) was 197.81±40.00 (0.249) pg/mL and the “TNF-alpha production in PMBC from healthy volunteers” value (TNF-alpha [1]; medium, 10^-8 M, vehicle 163.84±30.00, p 0.65) was 168.49±16.00 (0.65) pg/mL. The “TNF-alpha production in PMBC from patients with rheumatoid arthritis” value (TNF-alpha [2]; LPS (10µg/ml), 10^-6 M, vehicle 700.39±180.00, p 0.05) was 383.75±75.00 (0.05) pg/ml, the “TNF-alpha production in PMBC from patients with rheumatoid arthritis” value (TNF-alpha [2]; LPS (10µg/ml), 10^-7 M, vehicle 700.39±180.00, p 0.237) was 626.57±150.00 (0.237) pg/ml and the “TNF-alpha production in PMBC from patients with rheumatoid arthritis” value (TNF-alpha [2]; LPS (10µg/ml), 10^-8 M, vehicle 700.39±180.00, p 0.499) was 683.40±120.00 (0.499) pg/ml. For the same compound, the “TNF-alpha production in PMBC from patients with rheumatoid arthritis” value (TNF-alpha [2]; anti-CD3 (12.5 ng/ml) + anti-CD28 (1/3x10^5), 10^-6 M, vehicle 648.72±90.00, p 0.31) was 532.07±80.00 (0.31) pg/ml, the “TNF-alpha production in PMBC from patients with rheumatoid arthritis” value (TNF-alpha [2]; anti-CD3 (12.5 ng/ml) + anti-CD28 (1/3x10^5), 10^-7 M, vehicle 648.72±90.00, p 0.612) was 568.47±97.00 (0.612) pg/ml and the “TNF-alpha production in PMBC from patients with rheumatoid arthritis” value (TNF-alpha [2]; anti-CD3 (12.5 ng/ml) + anti-CD28 (1/3x10^5), 10^-8 M, vehicle 648.72±90.00, p 0.398) was 695.81±79.00 (0.398) pg/ml. The “TNF-alpha production in PMBC from patients with rheumatoid arthritis” value (TNF-alpha [2]; medium, 10^-6 M, vehicle 100.64±40.00, p 0.735) was 177.32±95.00 (0.735) pg/ml, the “TNF-alpha production in PMBC from patients with rheumatoid arthritis” value (TNF-alpha [2]; medium, 10^-7 M, vehicle 100.64±40.00, p 0.735) was 191.33±80.00 (0.735) pg/ml and the “TNF-alpha production in PMBC from patients with rheumatoid arthritis” value (TNF-alpha [2]; medium, 10^-8 M, vehicle 100.64±40.00, p 0.735) was 131.95±85.00 (0.735) pg/ml. For the same compound, the “IFN-gamma production in PMBC from patients with rheumatoid arthritis” value (from here on “IFN-gamma production in PMBC”) (IFN-gamma; LPS (10µg/ml), 10^-6 M, vehicle 461.14±85.00, p 0.484) was 205.26±46.00 (0.484) pg/mL, the “IFN-gamma production in PMBC” value (IFN-gamma; LPS (10µg/ml), 10^-7 M, vehicle 461.14±85.00, p 0.208) was 146.50±33.00 (0.208) pg/mL and the “IFN-gamma production in PMBC” value (IFN-gamma; LPS (10µg/ml), 10^-8 M, vehicle 461.14±85.00, p 0.889) was 248.73±35.00 (0.889) pg/mL. For the same compound, the “IFN-gamma production in PMBC” value (IFN-gamma; anti-CD3 (12.5 ng/ml) + anti-CD28 (1/3x10^5), 10^-6 M, vehicle 8406.18±1000.00, p 0.05) was 5115.27±600.00 (0.05) pg/mL, the “IFN-gamma production in PMBC” value (IFN-gamma; anti-CD3 (12.5 ng/ml) + anti-CD28 (1/3x10^5), 10^-7 M, vehicle 8406.18±1000.00, p 0.05) was 6411.71±700.00 (0.05) pg/mL and the “IFN-gamma production in PMBC” value (IFN-gamma; anti-CD3 (12.5 ng/ml) + anti-CD28 (1/3x10^5), 10^-8 M, vehicle 8406.18±1000.00, p 0.017) was 7122.07±950 (0.017) pg/mL. The “IFN-gamma production in PMBC” value (IFN-gamma; medium, 10^-6 M, vehicle 145.49±28.00, p 0.779) was 193.68±45.00 (0.779) pg/mL, the “IFN-gamma production in PMBC” value (IFN-gamma; medium, 10^-7 M, vehicle 145.49±28.00, p 0.208) was 203.72±50.00 (0.208) pg/mL and the “IFN-gamma production in PMBC” value (IFN-gamma; medium, 10^-8 M, vehicle 145.49±28.00, p 0.674) was 235.10±60.00 (0.674) pg/mL. For the same compound, the “IL-8 production by PMBC from healthy volunteers” value (shortened to “IL-8 production by PMBC”) (IL-8; LPS (10µg/ml), 10^-6 M, vehicle 173877.36±8474.49, p 0.807) was 168467.15±9656.96 (0.807) pg/mL, the “IL-8 production by PMBC” value (IL-8; LPS (10µg/ml), 10^-7 M, vehicle 173877.36±8474.49, p 0.249) was 162075.59±10258.41 (0.249) pg/mL and the “IL-8 production by PMBC” value (IL-8; LPS (10µg/ml), 10^-8 M, vehicle 173877.36±8474.49, p 0.861) was 169609.11±9060.90 (0.861) pg/mL. For the same compound, the “IL-8 production by PMBC” value (IL-8; anti-CD3 (12.5 ng/ml) + anti-CD28 (1/3x10^5), 10^-6 M, vehicle 107008.56±8351.21, p 0.311) was 99779.72±20000 (0.311) pg/mL, the “IL-8 production by PMBC” value (IL-8; anti-CD3 (12.5 ng/ml) + anti-CD28 (1/3x10^5), 10^-7 M, vehicle 107008.56±8351.21, p 0.055) was 97968.61±10220.21 (0.055) pg/mL and the “IL-8 production by PMBC” value (IL-8; anti-CD3 (12.5 ng/ml) + anti-CD28 (1/3x10^5), 10^-8 M, vehicle 107008.56±8351.21, p 0.028) was 92989.29±8463.47 (0.028) pg/mL. For the same compound, the “IL-8 production by PMBC” value (IL-8; medium, 10^-6 M, vehicle 72814.17±10647.16, p 0.016) was 45634.31±6311.13 (0.016) pg/mL, the “IL-8 production by PMBC” value (IL-8; medium, 10^-7 M, vehicle 72814.17±10647.16, p 0.006) was 53732.66±7952.75 (0.006) pg/mL and the “IL-8 production by PMBC” value (IL-8; medium, 10^-8 M, vehicle 72814.17±10647.16, p 0.087) was 57773.60±6667.57 (0.087) pg/mL.
